Reference: the supplement of paper PMC4862054

Columns and labels:
Conditions in all cases: incubation time: 72 h
BT-549 = test: drug sensitivity score (DSS), CellTiter-Glo (DSS (AUC-based score)); higher = stronger drug effect (viability inhibition or cytotoxicity); extreme values may be limits of the assay
Outline: (§1)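 Breast cancer cell lines, seeded as 20 µl suspension, were incubated 72 h with compound in 384-well plates at 5 concentrations in 10-fold steps over a 10,000-fold range set for each compound. Fluorescence from CellTox Green was read at 485/520 nm before CellTiter-Glo luminescence, which was read after 10 min at room temperature. Every plate was normalised to 0.1 % DMSO and a positive kill control, and the drug sensitivity score was taken from the area under the fitted dose-response curve.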

SK-BR-3 = test: as above
Outline: as §1

HCC1143 [1] = test: as above
Outline: as §1

CAL-85-1 [2] = test: as above
Outline: as §1

CAL-148 = test: as above
Outline: as §1

MDA-MB-468 [3] = test: as above
Outline: as §1

HCC1937 [4] = test: as above
Outline: as §1

MDA-MB-436 [5] = test: as above
Outline: as §1

MFM-223 = test: as above
Outline: as §1

MDA-MB-231 = test: as above
Outline: as §1

CAL-51 = test: as above
Outline: as §1

CAL-120 [6] = test: as above
Outline: as §1

BT-474 [7] = test: as above
Outline: as §1

MCF-10A [8] = test: as above
Outline: as §1

DU-4475 = test: as above
Outline: as §1

Hs578T = test: as above
Outline: as §1

HDQ-P1 = test: as above
Outline: as §1

MDA-MB-453 = test: as above
Outline: as §1

HCC1599 = test: as above
Outline: as §1

HCC1143 [9] = test: drug sensitivity score (DSS), CellTox Green (DSS (AUC-based score)); higher = stronger drug effect (viability inhibition or cytotoxicity); extreme values may be limits of the assay
Outline: as §1

CAL-85-1 [10] = test: as above
Outline: as §1

MDA-MB-468 [11] = test: as above
Outline: as §1

HCC1937 [12] = test: as above
Outline: as §1

MDA-MB-436 [13] = test: as above
Outline: as §1

CAL-120 [14] = test: as above
Outline: as §1

BT-474 [15] = test: as above
Outline: as §1

MCF-10A [16] = test: as above
Outline: as §1

SMILES	drug sensitivity score (BT-549)	drug sensitivity score (SK-BR-3)	drug sensitivity score (HCC1143 [1])	drug sensitivity score (CAL-85-1 [2])	drug sensitivity score (CAL-148)	drug sensitivity score (MDA-MB-468 [3])	drug sensitivity score (HCC1937 [4])	drug sensitivity score (MDA-MB-436 [5])	drug sensitivity score (MFM-223)	drug sensitivity score (MDA-MB-231)	drug sensitivity score (CAL-51)	drug sensitivity score (CAL-120 [6])	drug sensitivity score (BT-474 [7])	drug sensitivity score (MCF-10A [8])	drug sensitivity score (DU-4475)	drug sensitivity score (Hs578T)	drug sensitivity score (HDQ-P1)	drug sensitivity score (MDA-MB-453)	drug sensitivity score (HCC1599)	drug sensitivity score (HCC1143 [9])	drug sensitivity score (CAL-85-1 [10])	drug sensitivity score (MDA-MB-468 [11])	drug sensitivity score (HCC1937 [12])	drug sensitivity score (MDA-MB-436 [13])	drug sensitivity score (CAL-120 [14])	drug sensitivity score (BT-474 [15])	drug sensitivity score (MCF-10A [16])
CCn1c(C(=O)N(C2CC2)C2CC2)cc2c3c(ncn3C)c(Nc3cc(C)n(C)n3)nc21	0	0	0	0	0	0.0233	0	0	0	0	0	0	0	0	0	0	0	0	0	1.62	0	1.81	3.5	0	0	0	0
COc1ccc(S(=O)(=O)Nc2cccnc2Nc2ccc(O)cc2)cc1 [ABT-751]	9.41	13.1	6.19	12.2	3.29	12	2.93	11.4	7.28	7.19	2.26	7.83	6.74	2.74	5.29	10.9	5.44	10.5	11.2	0	12	4.39	0	9.27	0.145	0	4
CN[C@@H](C)C(=O)N[C@H]1CN(C(=O)CC(C)C)CC[C@H]2CC[C@@H](C(=O)NC(c3ccccc3)c3ccccc3)N2C1=O [AT-406]	17.3	0	0	7.99	0	4.99	0	0	0	16	0	0	20.1	0	0	0	2.18	4.36	0	0	22.9	0	0	0		0.17	0
Cc1cc(Nc2nc(N[C@@H](C)c3ncc(F)cn3)ncc2Cl)[nH]n1 [AZD1480]	0	0	0	0	0	0	0	0	5.17	0	0	0	0	0	0	0	0	0	0	0	0	0	0	0	0	0	0
CNC(=O)c1ccccc1Sc1ccc2c(/C=C/c3ccccn3)n[nH]c2c1 [Axitinib]	1.06	0	0	0	0	4.94	0	1.91	8.4	0	9.31	1.6	0	0	0	0	1.23	0	2.21	0	0	0	0	0	0	0	0
CC(O)(CS(=O)(=O)c1ccc(F)cc1)C(=O)Nc1ccc(C#N)c(C(F)(F)F)c1 (stereo not given) [Bicalutamide]	0	0	0	0	0	0	0	0	0	0	0	0	0	0	0	0	0	0.186	0	0	0		0	0	0	0	0
CCNC(=O)CCC/C=C\C[C@@H]1[C@@H](/C=C/[C@@H](O)CCc2ccccc2)[C@H](O)C[C@@H]1O [Bimatoprost]	0	0	0	0	0	0	0	0	0	0	0	0	0	0	0	0	0	0	0	0	0		0	0	0	0	0
COc1cc(Nc2c(C#N)cnc3cc(OCCCN4CCN(C)CC4)c(OC)cc23)c(Cl)cc1Cl [Bosutinib]	4.99	5.72	3.67	9.16	1.7	8.1	7.57	7.31	4.34	8.52	7.53	5.53	6.85	15.1	0	0.947	11.3	5.47	5.58	0	8.13	5.02	1.87	2.19	0	5.18	7.8
CCN(CC)CCCC(C)Nc1ccnc2cc(Cl)ccc12 (stereo not given) [Chloroquine]	9.55	14.7	4.28	11	10.1	10.8	9.1	9.03	9.76	9.09	13.3	11.1	9.59	8.64	8.35	5.84	7.81	15.7	9.72	0	7.92	27.3	5.9	8.96	4.62	14.7	7.9
CC1(COc2ccc3c(c2)ncn3-c2ccc3cccc(N4CCC(N)CC4)c3n2)COC1 [Crenolanib]	7.22	4.21	0	4.49	4.01	3.61	0.864	4.37	0	4.35	6.45	0	4.44	3.64	4.23	4.07	3.33	3.06	0.696	1.14	6.6	0	0	18.5	0	5.99	5.3
CN(C)C(=N)NC(=N)N [Metformin]	0	0	0	0	0	0.63	0	0	0	0	6.92	0	0	0	0	0	0	0	0		0	14.1	0	0	0	0	0
CC1(C)CCC(c2ccc(Cl)cc2)=C(CN2CCN(c3ccc(C(=O)NS(=O)(=O)c4ccc(N[C@H](CCN5CCOCC5)CSc5ccccc5)c(S(=O)(=O)C(F)(F)F)c4)cc3)CC2)C1 [Navitoclax]	0.252	0	0	0.831	2	4.81	3.57	0	2.94	11.1	2.18	7.04	9.19	0	1.89	0	4.94	3.71	0	0	3.45	6.68	0	0	10.9	2.28	
C=CCN(/C=C1/C(=O)O[C@H](COC)[C@@]2(C)C1=C(O)C(=O)C1=C2[C@H](OC(C)=O)C[C@]2(C)C(=O)CC[C@@H]12)CC=C [Sonolisib]	0.766	0	0	0	0	0	0	0	0	0	4.2	0	0	0	0	0	0	0	0	0	2.28		0	0	0	0	0
